The source of these data is patent US20250059205A1, “Heterocyclic Compounds and Methods of Use” (AMGEN INC., priority 2021, published 2025).

Test [1] addresses His-tagged KRAS G12D protein (Homo sapiens, UniProt P01116, G12D). The test can be described thus: KRAS G12D TR-FRET Assay. The test is classed as binding. A general note: Time-resolved FRET reads energy transfer from a long-lived donor to a nearby acceptor.
In test [2] the test system is Phosphorylation of ERK1/2 in AsPC-1 cells. Put plainly: Phospho-ERK1/2 MSD Assay (AsPC-1 cells). The test is classed as cell-based. The settings on record: Homo sapiens, ASPC1, 2 h, 2 hours treatment, read-out: p-ERK (AsPC-1 cells) IC50. The essentials:
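Read-out: MSD electrochemiluminescent detection of phosphorylated ERK1/2 in whole-cell lysates, fitted to a 4-parameter logistic curve for IC50. Prior to lysis, AsPC-1 cells (25,000 per well) received a 2 h compound dose-response at 37 °C.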

The test system of test [3] is Phosphorylation of ERK1/2 in A-427 cells. Put plainly: Phospho-ERK1/2 MSD Assay (A-427 cells). The test is classed as cell-based. The settings on record: Homo sapiens, A-427, 2 h, 2 h treatment, read-out: p-ERK (A427 cells) IC50. The essentials: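 ERK1/2 phosphorylation measured by Meso Scale whole-cell lysate assay after A-427 cells were exposed to a titration of compound for 2 h at 37 °C.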

The target in test [4] is GDP-bound KRAS protein (aa 1-169), containing both G12D and C118A amino acid substitutions (Homo sapiens, UniProt P01116, C118A/G12D). The test can be described thus: KRAS G12D Coupled Nucleotide Exchange Assay. The format is biochemical. Conditions: 2 h compound pre-incubation. As to the method: Following compound pre-incubation, purified SOS protein (aa 564-1049) and GTP (Roche 10106399001) were added to the assay wells and incubated for an additional 30 min. […] The assay plates were then read on a PerkinElmer EnVision Multilabel Reader, using AlphaScreen® technology, and data were analyzed using a 4-parameter logistic model to calculate IC50 values.
GDP-bound KRAS protein (aa 1-169), containing both G12D and C118A amino acid substitutions, sequence (P01116 1-169 isoform P01116-2 G12D/C118A): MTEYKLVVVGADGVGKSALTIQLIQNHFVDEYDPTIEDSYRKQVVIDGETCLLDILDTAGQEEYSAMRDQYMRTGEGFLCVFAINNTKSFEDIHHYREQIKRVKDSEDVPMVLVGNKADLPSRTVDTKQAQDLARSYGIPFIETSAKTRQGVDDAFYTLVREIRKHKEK

His-tagged KRAS G12D protein, sequence (P01116 1-188 isoform P01116-2 G12D): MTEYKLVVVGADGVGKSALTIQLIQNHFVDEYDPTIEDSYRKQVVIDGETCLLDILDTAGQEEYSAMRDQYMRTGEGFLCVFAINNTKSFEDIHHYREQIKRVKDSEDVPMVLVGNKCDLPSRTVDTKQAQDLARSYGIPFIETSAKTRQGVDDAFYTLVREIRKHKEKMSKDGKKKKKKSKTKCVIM

On to `Cc1c(-c2cc(O)cc3ccccc23)ccc2c(N3C[C@H]4C[C@@H](C3)N4)nc(OC[C@@]34CCCN3C[C@H](F)C4)nc12` [Example 5, 4-(4-((1R,5S)-3,6-diazabicyclo[3.1. 1]heptan-3-yl)-2-(((2R,7aS)-2-fluorotetrahydro-1H-pyrrolizin-7a(5H)-yl)methoxy)-8-methylquinazolin-7-yl)naphthalen-2-ol], for which the half-maximal inhibitory concentration (IC50) in test [1] was found to be 43 nM; in test [2] it was 2970 nM; in test [3], 2150 nM. Besides, the “Avg 2 h Coupled Exchange IC50” value in test [4] is 19 nM.

Regarding `Oc1cc(-c2ccc3c(N4C[C@@H]5CC[C@H]4CN5)nc(OC[C@@]45CCCN4C[C@H](F)C5)nc3c2F)c2c(F)c(F)ccc2c1` [Example 140, 4-(4-((1S,4S)-2,5-diazabicyclo[2.2.2]octan-2-yl)-8-fluoro-2-(((2R,7aS)-2-fluorotetrahydro-1H-pyrrolizin-7a(5H)-yl)methoxy)quinazolin-7-yl)-5,6-difluoronaphthalen-2-ol], the IC50 in test [1] was found to be 2 nM; in test [2], 70 nM; in test [3] it was 11 nM. The “Avg 2 h Coupled Exchange IC50” value in test [4] was 1 nM.

Turning to `CC(O)COc1nc(N2C[C@H]3CC[C@@H](C2)N3)c2cc(F)c(-c3cc(O)cc4ccccc34)c(F)c2n1` (stereo partly drawn) [Example 125, 4-(4-((1R,5S)-3,8-diazabicyclo[3.2.1]octan-3-yl)-6,8-difluoro-2-(2-hydroxypropoxy)quinazolin-7-yl)naphthalen-2-ol], the figures for the IC50 in test [1], in test [2] and in test [3] were 114 nM, above 10000 nM and above 10000 nM, respectively. The “Avg 2 h Coupled Exchange IC50” value in test [4] was 39 nM.

Consider `Oc1cc(-c2c(Cl)cc3c(N4C[C@H]5CC[C@@H](C4)N5)nc(OC[C@@]45CCCN4C[C@H](F)C5)nc3c2F)c2c(F)c(F)ccc2c1` [Example 81, 4-(4-((1R,5S)-3,8-diazabicyclo[3.2. 1]octan-3-yl)-6-chloro-8-fluoro-2-(((2R,7aS)-2-fluorotetrahydro-1H-pyrrolizin-7a(5H)-yl)methoxy)quinazolin-7-yl)-5,6-difluoronaphthalen-2-ol], for which the IC50 in test [1] stood at 3 nM; in test [2], 99 nM; in test [3], 30 nM. Further, the “Avg 2 h Coupled Exchange IC50” value in test [4] came out at 4 nM.

On to `Cc1c(-c2cc(O)cc3cccc(Cl)c23)ccc2c(N3C[C@H]4CC[C@@H](C3)N4)nc(OC[C@@]34CCCN3C[C@H](F)C4)nc12` [Example 57, 4-(4-((1R,5S)-3,8-diazabicyclo[3.2. 1]octan-3-yl)-2-(((2R,7aS)-2-fluorotetrahydro-1H-pyrrolizin-7a(5H)-yl)methoxy)-8-methylquinazolin-7-yl)-5-chloronaphthalen-2-ol], for which the IC50 was found to be 5 nM in test [1], 213 nM in test [2] and 222 nM in test [3]. Moreover, the “Avg 2 h Coupled Exchange IC50” value in test [4] came to 3 nM.

In the case of `Oc1cc(-c2ccc3c(N4[C@@H]5CC[C@H]4CNC5)nc(OC[C@@]45CCCN4C[C@H](F)C5)nc3c2F)c2ncccc2c1` [Example 25, 8-(4-((1R,5S)-3,8-diazabicyclo[3.2. 1]octan-8-yl)-8-fluoro-2-(((2R,7aS)-2-fluorotetrahydro-1H-pyrrolizin-7a(5H)-yl)methoxy)quinazolin-7-yl)quinolin-6-ol], the IC50 in test [1] was determined as 58 nM; in test [2] it was 14800 nM; in test [3] it was 5050 nM. Moreover, the “Avg 2 h Coupled Exchange IC50” value in test [4] came to 17 nM.

Take `Oc1cc(-c2ccc3c(N4[C@@H]5CC[C@H]4CNC5)nc(OC[C@]45CCCN4C[C@H](F)C5)nc3c2F)c2ccccc2c1` [Example 3, 4-(4-((1R,5S)-3,8-diazabicyclo[3.2. 1]octan-8-yl)-8-fluoro-2-(((2R,7aR)-2-fluorotetrahydro-1H-pyrrolizin-7a(5H)-yl)methoxy)quinazolin-7-yl)naphthalen-2-ol]: the IC50 amounted to 10 nM in test [1], 812 nM in test [2] and 650 nM in test [3]. Also, the “Avg 2 h Coupled Exchange IC50” value in test [4] is 5 nM.

Take `C#Cc1c(F)ccc2cc(O)cc(-c3cc4nc(OC[C@@]56CCCN5C[C@H](F)C6)nc(N5C[C@H]6CC[C@@H](C5)N6)c4cc3F)c12` [Example 181, 4-(4-((1R,5S)-3,8-diazabicyclo[3.2.1]octan-3-yl)-6-fluoro-2-(((2R,7aS)-2-fluorotetrahydro-1H-pyrrolizin-7a(5H)-yl)methoxy)quinazolin-7-yl)-5-ethynyl-6-fluoronaphthalen-2-ol]: the IC50 in test [1] came out at 1 nM; in test [2] it was 18 nM; in test [3], 3 nM. Further, in test [4], the “Avg 2 h Coupled Exchange IC50” value came to 1 nM.

With `CCc1c(F)ccc2cc(O)cc(-c3c(F)cc4c(N5C6CCC5C(=O)NC6)nc(OC[C@@]56CCCN5C[C@H](F)C6)nc4c3F)c12` (single isomer, unassigned) [Example 175], the IC50 came out at 6 nM in test [1], 1560 nM in test [2] and 448 nM in test [3]. The “Avg 2 h Coupled Exchange IC50” value in test [4] stood at 4 nM.

Regarding `Cc1c(-c2cc(O)cc3cccc(Cl)c23)ccc2c(N3[C@@H]4CC[C@H]3CNC4)nc(OC[C@@]34CCCN3C[C@H](F)C4)nc12` [Example 98, 4-(4-((1R,5S)-3,8-diazabicyclo[3.2. 1]octan-8-yl)-2-(((2R,7aS)-2-fluorotetrahydro-1H-pyrrolizin-7a(5H)-yl)methoxy)-8-methylquinazolin-7-yl)-5-chloronaphthalen-2-ol], the IC50 in test [1] is 13 nM; in test [2], 1050 nM; in test [3], 587 nM. Moreover, the “Avg 2 h Coupled Exchange IC50” value in test [4] came out at 13 nM.

Regarding `Oc1cc(-c2c(F)cc3c(N4C[C@H]5C[C@@H](C4)N5)nc(OCC45CCCN4CC(F)(F)C5)nc3c2F)c2ccccc2c1` (stereo partly drawn) [Example 20, 4-(4-((1R,5S)-3,6-diazabicyclo[3.1. 1]heptan-3-yl)-2-((2,2-difluorotetrahydro-1H-pyrrolizin-7a(5H)-yl)methoxy)-6,8-difluoroquinazolin-7-yl)naphthalen-2-ol], the results for the IC50 in test [1], in test [2] and in test [3] were 87 nM, 5560 nM and 7280 nM, respectively. Further, in test [4], the “Avg 2 h Coupled Exchange IC50” value stood at 40 nM.

For `CCc1c(F)ccc2cc(O)cc(-c3c(F)cc4c(N5C[C@H]6CC[C@@H](C5)N6)nc(OCc5nccn5C)nc4c3F)c12` [Example 213, 4-(4-((1R,5S)-3,8-diazabicyclo[3.2.1]octan-3-yl)-6,8-difluoro-2-((1-methyl-1H-imidazol-2-yl)methoxy)quinazolin-7-yl)-5-ethyl-6-fluoronaphthalen-2-ol], the figures for the IC50 in test [1], in test [2] and in test [3] were 11 nM, 2300 nM and 1460 nM, respectively. Further, in test [4], the “Avg 2 h Coupled Exchange IC50” value was 6 nM.

Regarding `Oc1cc(Cl)c(C2CC2)c(-c2c(F)cc3c(N4C[C@H]5CC[C@@H](C4)N5)nc(OC[C@@]45CCCN4C[C@H](F)C5)nc3c2F)c1` [Example 144, 3-(4-((1R,5S)-3,8-diazabicyclo[3.2.1]octan-3-yl)-6,8-difluoro-2-(((2R,7aS)-2-fluorotetrahydro-1H-pyrrolizin-7a(5H)-yl)methoxy)quinazolin-7-yl)-5-chloro-4-cyclopropylphenol], the results for the IC50 in test [1], in test [2] and in test [3] were 3 nM, 41 nM and 23 nM, respectively. For the same molecule, the “Avg 2 h Coupled Exchange IC50” value in test [4] was 3 nM.

The IC50 is the concentration needed to halve the response being measured.
